The pEC50 is −log10 of the EC50, conventionally taken in molar units. As a reminder, the pIC50 is the negative decadic logarithm of the IC50, by convention in mol/L.

This passage reports EC50 and IC50 results from US10744150B2, “Cyclic dinucleotides as anticancer agents” (BRISTOL-MYERS SQUIBB COMPANY, priority 2017, dated 2020).

pEC50, pIC50: −log10 of the molar value. Where two headings read alike, the source gives them in different places. Bounds are passed on as bounds.

The subject of one assay is IRF3. The experiment in a line: STING THP1 reporter assay, IRF pathway (secreted luciferase Lucia, QUANTI-Luc). In kind it is cell-based. The settings on record: THP1-Dual cells, 10% human plasma, 100% activation = 100 μM cGAMP, luciferase readout, read-out: THP1 Reporter Assays EC50 IRF3. An excerpt:
(§1) THP1-Dual™ cells were derived from the human THP-1 monocyte cell line by stable integration of two inducible reporter constructs. To this end, THP1-Dual™ cells allow the simultaneous study of the NF-κB pathway, by monitoring the activity of SEAP, and the IRF pathway by assessing the activity of a secreted luciferase (Lucia). Both reporter proteins are readily measurable in the cell culture supernatant when using QUANTI-Blue™, a SEAP detection reagent, and QUANTI-Luc™, a luciferase detection reagent.
(§2) THP1-Dual™ cells induce the activation of NF-κB in response to STING agonists. They also trigger the IRF pathway upon stimulation with STING agonists, such as cGAMP. Here, the THP-1-Dual cells were used to assess STING binders for function on the cellular level.
(§3) Serial dilutions of compounds in DMSO were added to low volume 384 well plates at 100 nl/well using an ECHO acoustic dispenser (Labcyte, model 550) to achieve final starting concentration of 100 μM in cell suspension. THP-1 Dual™ STING reporter cells (Invivogen, Dual cells cat # THPD-nfis) were added to the plates with compounds at 15,000 cells in 10 μL per well in RPMI media (Gibco, cat #11875) containing 10% human plasma in a low volume 384-well black wall clear bottom tissue culture plate (Corning, cat #3542) for SEAP assay and low volume solid white plate (Corning, cat #3826) for luciferase assay. One column of the plate was reserved for treatment with cGAMP at 100 μM for 100% activation calculation and one column for no treatment (DMSO only) for baseline activation. Plates were then incubated in 37° C. incubator at 5% CO2 for 20 hours.
(§4) In the SEAP assay, 5 μl of 2× QuantiBlue (Invivogen, cat # Rep-qb2) is added to 384 well black plates seeded with THP1 cells and incubated at 37° C. for 2 hours. Plates were read on the Envision (Perkin Elmer) at 620 nm wavelength (OD620). In the luciferase assay, 5 μl of Quantiluc (Invivogen, Rep-qlc2) is added to white 384 well plates seeded with THP1 cells and read at 5 minutes on the Envision (Perkin Elmer) using a luminescence protocol (RLU). For both cell lines, 100% activation was determined by value (RLU) of THP-1 Dual STING cells stimulated with 100 μM cGAMP (Invivogen, cat # TLRL-NACGA23-5).

The subject of another assay is NFkB. The experiment in a line: STING THP1 reporter assay, NF-κB pathway (SEAP, QUANTI-Blue). In kind it is cell-based. The settings on record: THP1-Dual cells, 10% human plasma, 100% activation = 100 μM cGAMP.
Description: as §1, §2, §3, §4
On the technique in general: A reporter such as luciferase makes a cellular process visible.

Assay [1] concerns the target T1, STING WT: His-TVMV-S-hSTING(155-341)-H232R (Homo sapiens, UniProt Q86WV6, H232R).
T1 construct: His-TVMV-S-hSTING(155-341)-H232R
In words: STING HTRF binding assay (time resolved FRET competition), STING WT. Particulars: 20 nM His-tagged STING cytoplasmic domain, 200 nM fluorescein-labeled cGAMP analog probe, one hour; read-out: HTRF Binding Assays IC50 STING WT. The protocol: (§5) A time resolved FRET-based competition binding assay was used to assess test article binding to STING WT and STING AQ. His-tagged STING cytoplasmic domain (WT or AQ) at a concentration of 20 nM was incubated with 2.5 nM Tb-labeled anti-His antibody, test compound, and fluorescein-labeled cGAMP analog probe (BioLog cat. no. C195) at a concentration of 200 nM (STING WT) or 40 nM (STING AQ) in PBS containing 0.005% Tween-20 and 0.1% BSA for one hour. Fluorescence at 495 nm and 520 nm was measured using an EnVision microplate reader to quantify FRET between Tb-labeled anti-His antibody and fluorescein-labeled probe. Background was defined as the signal obtained in the absence of STING protein, and background subtracted FRET ratios were normalized to the maximum signal obtained in the absence of test compound. These values were converted to a percent inhibition. Percent inhibition was determined for test compounds at 11 concentrations. The IC50, defined as the concentration of competing test compound needed to reduce specific binding of the probe by 50%, was calculated using the 4 parameter logistic equation to fit the data

Assay [2] concerns the target T2, STING AQ: His-TVMV-S-hSTING(155-341)-G230A-R293Q (Homo sapiens, UniProt Q86WV6, G230A/H232R/R293Q).
T2 construct: His-TVMV-S-hSTING(155-341)-G230A-R293Q
In words: STING HTRF binding assay (time resolved FRET competition), STING AQ. Particulars: 20 nM His-tagged STING cytoplasmic domain, 40 nM fluorescein-labeled cGAMP analog probe, one hour; read-out: HTRF Binding Assays IC50 STING AQ. On the procedure: as §5

[3] abbreviates: Homo sapiens, THP-1, 20 h, SEAP readout OD620, read-out: THP1 Reporter Assays EC50 NFkB.
The mark [4] stands for this setting: 20 hours, SEAP readout OD620, read-out: THP1 Reporter Assays EC50 NFkB.

T1 sequence (Q86WV6 with tags, fused parts or gaps H232R): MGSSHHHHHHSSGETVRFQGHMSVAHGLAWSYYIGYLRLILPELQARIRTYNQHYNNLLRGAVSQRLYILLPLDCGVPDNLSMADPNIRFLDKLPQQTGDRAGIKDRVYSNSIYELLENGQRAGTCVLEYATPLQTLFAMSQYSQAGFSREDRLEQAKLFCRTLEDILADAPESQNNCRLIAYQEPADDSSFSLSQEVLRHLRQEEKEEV
T2 sequence (Q86WV6 with tags, fused parts or gaps G230A/H232R/R293Q): as the sequence (Q86WV6 with tags, fused parts or gaps H232R) above, with G99A, R162Q counted along it

Regarding `Nc1ncnc2c1ncn2[C@@H]1C[C@@H]2COP(O)(=S)O[C@H]3[C@H](F)[C@H](n4ccc5c(Cl)ncnc54)O[C@@H]3COP(O)(=S)OC[C@H]21` (single isomer, unassigned) [Example 7-1], the pEC50 in the assay with IRF3 (Homo sapiens, THP-1, 20 h) was less than 4.00; with NFkB (setting [3]), less than 4.00. In addition, the pIC50 in assay [1] was less than 4.00; in assay [2], 4.49.

Take `O=c1[nH]c2nccn2c2c1ncn2[C@@H]1O[C@@H]2COP(=O)(S)OC[C@@H]3[C@@H](COP(=O)(S)O[C@@H]1[C@@H]2O)C[C@H]3n1cnc2c(O)ncnc21` (single isomer, unassigned) [Example 14-2]: the pEC50 in the assay on IRF3 (20 hours) and with NFkB (setting [4]) was less than 4.00 throughout. Besides, the negative-log IC50 (pIC50) in assay [1] was 4.59; in assay [2] it was 5.29.

`Nc1ncnc2c1ncn2[C@@H]1C[C@@H]2COP(=O)(S)O[C@H]3[C@@H](F)[C@H](n4cnc5c(N)ncnc54)O[C@@H]3COP(=O)(S)OC[C@H]21` (single isomer, unassigned) [Example 2-1]: the pEC50 in the assay on IRF3 (20 hours) and with NFkB (setting [4]) was less than 4.00 in each case. The pIC50 in assay [1] was 4.62; in assay [2] it was 6.68.

Take `Nc1nc2c(ncn2[C@@H]2C[C@@H]3COP(O)(=S)O[C@H]4[C@@H](F)[C@H](n5cnc6c(N)ncnc65)O[C@@H]4COP(O)(=S)OC[C@H]32)c(=O)[nH]1` (single isomer, unassigned) [Example 18-4]: the values for the pEC50 with IRF3 (20 hours) and with NFkB (setting [4]) were less than 4.00 and 4.13, respectively. Moreover, the negative logarithm of the IC50 (pIC50) in assay [1] was 7.30; in assay [2], 8.40.

Regarding `Nc1ncnc2c1ncn2[C@@H]1O[C@@H]2COP(O)(=S)OC[C@@H]3[C@@H](COP(O)(=S)O[C@H]2[C@H]1F)C[C@H]3n1cnc2c(=O)[nH]cnc21` (single isomer, unassigned) [Example 5-2], the negative logarithm of the EC50 (pEC50) with IRF3 (20 hours) and in the assay with NFkB (setting [4]) was less than 4.00 in each case. In addition, the values for the negative-log IC50 (pIC50) in assay [1] and in assay [2] were 6.36 and 7.70, respectively.

With `NC(=O)c1cccc2c1nnn2[C@@H]1O[C@@H]2COP(O)(=S)OC[C@@H]3[C@@H](COP(O)(=S)O[C@@H]1[C@@H]2F)C[C@H]3n1cnc2c(N)ncnc21` (single isomer, unassigned) [Example 11-4], the pEC50 with IRF3 (20 hours) and with NFkB (setting [4]) was less than 4.00 throughout. For the same compound, the pIC50 in assay [1] is 4.18; in assay [2] it was 4.64.

For `Nc1ncnc2c1ncn2[C@@H]1C[C@@H]2COP(O)(=S)O[C@H]3[C@@H](O)[C@H](n4cnc5c(O)ncnc54)O[C@@H]3COP(O)(=S)OC[C@H]21` (stereo partly drawn) [Example 16, (1S,6S,8R,9R,15R,17R,18R)-8-(6-amino-9H-purin-9-yl)-3,12,18-trihydroxy-17-(6-hydroxy-9H-purin-9-yl)-2,4,11,13,16-pentaoxa-3λ^5,12λ^5-diphosphatricyclo[13.3.0.0^6,9]octadecane-3,12-dithione], the pEC50 in the assay with IRF3 (Homo sapiens, THP-1, 20 h) is less than 4.00; in the assay on NFkB (setting [3]), 4.51. For the same compound, the pIC50 was 4.75 in assay [1] and 6.64 in assay [2].

As for `Nc1nc2c(ncn2[C@@H]2C[C@@H]3COP(O)(=S)O[C@H]4[C@@H](F)[C@H](n5cnc6c(N)ncnc65)O[C@@H]4COP(O)(=S)OC[C@H]32)c(=O)[nH]1` (single isomer, unassigned) [Example 18-3], the pEC50 with IRF3 (20 hours) and in the assay on NFkB (setting [4]) was less than 4.00 each time. For the same compound, the figures for the negative-log IC50 (pIC50) in assay [1] and in assay [2] were 6.28 and 7.70, respectively.

For the compound `Nc1ncnc2c1ncn2[C@@H]1C[C@@H]2COP(=O)(S)O[C@H]3[C@@H](F)[C@H](n4cnc5c(N)ncnc54)O[C@@H]3COP(=O)(S)OC[C@H]21` (single isomer, unassigned) [Example 2-2], the values for the negative-log EC50 (pEC50) in the assay with IRF3 (20 hours) and with NFkB (setting [4]) were 4.07 and less than 4.00, respectively. Further, the values for the pIC50 in assay [1] and in assay [2] were 6.06 and 8.00, respectively.

Take `Nc1ncnc2c1ncn2[C@@H]1O[C@@H]2COP(O)(=S)OC[C@@H]3[C@@H](COP(O)(=S)O[C@H]2[C@H]1F)C[C@H]3n1cnc2c(=O)[nH]cnc21` (single isomer, unassigned) [Example 5-4]: the pEC50 in the assay with IRF3 (20 hours) was 4.92; in the assay with NFkB (setting [4]), 4.04. The pIC50 was 6.92 in assay [1] and 8.00 in assay [2].

On to `Nc1ncnc2c1ncn2[C@@H]1C[C@@H]2COP(O)(=S)O[C@H]3[C@H](F)[C@H](n4cnc5c(N)ncnc54)O[C@@H]3COP(O)(=S)OC[C@H]21` (single isomer, unassigned) [Example 17-2], for which the negative logarithm of the EC50 (pEC50) with IRF3 (20 hours) and with NFkB (setting [4]) was less than 4.00 throughout. Besides, the values for the negative-log IC50 (pIC50) in assay [1] and in assay [2] were less than 4.00 and 5.72, respectively.

`Nc1ncnc2c1ncn2[C@@H]1O[C@@H]2COP(O)(=S)OC[C@@H]3[C@@H](COP(O)(=S)O[C@H]2[C@H]1F)C[C@H]3n1cnc2c(O)nc3nccn3c21` (single isomer, unassigned) [Example 3-2]: the pEC50 in the assay with IRF3 (20 hours) and with NFkB (setting [4]) was less than 4.00 throughout. The negative-log IC50 (pIC50) in assay [1] was 5.40; in assay [2], 6.34.

`Nc1ncnc2c1ccn2[C@@H]1O[C@@H]2COP(O)(=S)OC[C@@H]3[C@@H](COP(O)(=S)O[C@H]2[C@@H]1F)C[C@H]3n1cnc2c(N)ncnc21` (single isomer, unassigned) [Example 8-2]: the figures for the pEC50 in the assay with IRF3 (20 hours) and in the assay on NFkB (setting [4]) were less than 4.00 and 4.01, respectively. Further, the values for the pIC50 in assay [1] and in assay [2] were 4.48 and less than 4.00, respectively.

Regarding `Nc1ncnc2c1ncn2[C@@H]1C[C@@H]2COP(O)(=S)O[C@@H]3[C@H](O)[C@@H](COP(O)(=S)OC[C@H]21)O[C@H]3n1cnc2c(O)nc3nccn3c21` (single isomer, unassigned) [Example 15-3], the pEC50 in the assay with IRF3 (20 hours) and in the assay on NFkB (setting [4]) was less than 4.00 each time. In addition, the values for the negative-log IC50 (pIC50) in assay [1] and in assay [2] were 4.49 and 5.92, respectively.

Consider `Nc1ncnc2c1ncn2[C@@H]1C[C@@H]2COP(O)(=S)O[C@H]3[C@H](F)[C@H](n4ccc5c(Cl)ncnc54)O[C@@H]3COP(O)(=S)OC[C@H]21` (single isomer, unassigned) [Example 7-4], for which the negative logarithm of the EC50 (pEC50) in the assay with IRF3 (20 hours) and in the assay with NFkB (setting [4]) was less than 4.00 each time. Moreover, the negative-log IC50 (pIC50) was 4.31 in assay [1] and 5.20 in assay [2].

Turning to `Nc1ncnc2c1ncn2[C@@H]1O[C@@H]2COP(O)(=S)OC[C@@H]3[C@@H](COP(O)(=S)O[C@H]2[C@H]1F)C[C@H]3n1cnc2c(=O)[nH]cnc21` (single isomer, unassigned) [Example 5-1], the pEC50 in the assay with IRF3 (20 hours) and in the assay on NFkB (setting [3]) was less than 4.00 throughout. For the same compound, the pIC50 in assay [1] is 5.24; in assay [2], 7.00.

For the compound `O=c1[nH]c2nccn2c2c1ncn2[C@@H]1O[C@@H]2COP(=O)(S)OC[C@@H]3[C@@H](COP(=O)(S)O[C@@H]1[C@@H]2O)C[C@H]3n1cnc2c(O)ncnc21` (single isomer, unassigned) [Example 14-1], the pEC50 with IRF3 (Homo sapiens, THP-1, 20 h) is less than 4.00; with NFkB (setting [3]) it was less than 4.00. The negative-log IC50 (pIC50) is 4.08 in assay [1] and 5.35 in assay [2].
